Test results published in US9024041B2, “P38 MAP kinase inhibitors” (Respivert Ltd., priority 2010, dated 2015).

What was measured:
[1] = system: LPS-induced neutrophil accumulation in Balb/c mice; test: LPS-induced neutrophil accumulation in mice; assay type: in vivo
Method: LPS-Induced Neutrophil Accumulation in Mice
Non-fasted Balb/c mice were dosed by the intra tracheal route with either vehicle, or the test substance at the indicated times (within the range 2-12 hr) before stimulation of the inflammatory response by application of an LPS challenge. At T=0, mice were placed into an exposure chamber and exposed to LPS. After a further 8 hr the animals were anesthetized, their tracheas cannulated and BALF extracted by infusing and then withdrawing from their lungs 1.0 mL of PBS via the tracheal catheter. Total and differential white cell counts in the BALF samples were measured using a Neubaur haemocytometer. Cytospin smears of the BALF samples were prepared by centrifugation at 200 rpm for 5 min at RT and stained using a DiffQuik stain system (Dade Behring). Cells were counted using oil immersion microscopy.

[2] = biological target: T1, Recombinant, phosphorylated p38 MAPKγ (MAPK12:Invitrogen) (Homo sapiens, UniProt P53778); test: p38 MAPKγ enzyme inhibition assay (FRET, Z-LYTE); assay type: biochemical; details: 2 hr pre-incubation, ATP 100 μM; read-out: Enzyme Inhibition IC50 p38γ
T1 construct: purchased Invitrogen
T1 sequence (P53778 1-367): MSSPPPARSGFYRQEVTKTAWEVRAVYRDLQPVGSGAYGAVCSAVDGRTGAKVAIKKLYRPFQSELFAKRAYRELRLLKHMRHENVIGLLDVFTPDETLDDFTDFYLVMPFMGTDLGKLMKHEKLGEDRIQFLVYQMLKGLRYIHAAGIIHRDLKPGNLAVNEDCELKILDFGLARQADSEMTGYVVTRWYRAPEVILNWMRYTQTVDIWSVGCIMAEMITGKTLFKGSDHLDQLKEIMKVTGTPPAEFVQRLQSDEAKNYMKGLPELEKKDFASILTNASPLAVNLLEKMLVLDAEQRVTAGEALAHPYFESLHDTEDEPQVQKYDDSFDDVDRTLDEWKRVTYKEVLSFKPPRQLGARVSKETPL

[3] = system: LPS-induced TNFα release in THP-1 cells; test: LPS-induced TNFα release in THP-1 cells; assay type: cell-based; details: Homo sapiens, 3 μg/mL LPS, 4 hr
Summary of the method: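 Human monocytic cells were stimulated with 3 μg/mL E. coli LPS for 4 hr. Supernatant TNFα was measured by sandwich ELISA. Inhibition was taken relative to vehicle control, and IC50 derived from the concentration-response curve.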

[4] = system: LPS-induced IL-8 release in d-U937 cells; test: LPS-induced IL-8 release in d-U937 cells; assay type: cell-based; details: Homo sapiens, dU937, 0.1 μg/mL LPS, 4 hr
Summary of the method: (§1)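 U937 cells differentiated with PMA (100 ng/mL, 48–72 hr), pre-incubated with compound 2 hr, then stimulated with 0.1 μg/mL E. coli O111:B4 LPS for 4 hr. Supernatant TNFα and IL-8 measured by sandwich ELISA; REC50 (TNFα) and IC50 (IL-8 inhibition vs vehicle) taken from concentration-response curves.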

[5] = system: Differentiated U937 cells; test: MTT assay: cell viability on exposure to test compounds; assay type: cell-based, human; details: percentage loss of cell viability vs vehicle, 1 μg/mL; for MTT Assay (Viability) 4 h d-U937: 5% FCS; for MTT Assay (Viability) 24 h d-U937: 10% FCS
Summary of the method: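 Differentiated U937 cells were pre-incubated with compound for either 4 h in 5% FCS or 24 h in 10% FCS, then given MTT for 1 h. Formazan was dissolved in DMSO and read at 550 nm. Viability loss is expressed as % versus 0.5% DMSO vehicle, so an apparent gain appears as a negative value.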

[6] = biological target: T2, p38 MAPKα isoform (MAPK14: Invitrogen) (Homo sapiens, UniProt Q16539); test: p38 MAPKα enzyme inhibition assay (FRET, Z-LYTE, via MAPKAP-K2 activation); assay type: biochemical; details: 2 hr pre-incubation, ATP 10.0 μM; read-out: Enzyme Inhibition IC50 p38α
T2 construct: purchased Invitrogen
T2 sequence (Q16539 whole entry, canonical isoform): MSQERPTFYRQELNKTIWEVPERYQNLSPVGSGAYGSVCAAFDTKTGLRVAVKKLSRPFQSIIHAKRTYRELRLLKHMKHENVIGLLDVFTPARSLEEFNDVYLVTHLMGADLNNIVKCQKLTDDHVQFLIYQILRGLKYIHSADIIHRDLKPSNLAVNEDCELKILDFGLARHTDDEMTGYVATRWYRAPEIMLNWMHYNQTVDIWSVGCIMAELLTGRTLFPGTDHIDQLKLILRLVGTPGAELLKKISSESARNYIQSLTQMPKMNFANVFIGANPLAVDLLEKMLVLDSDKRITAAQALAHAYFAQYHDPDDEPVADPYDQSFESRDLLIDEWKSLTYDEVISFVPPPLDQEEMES
Method: The enzyme inhibitory activities of compounds disclosed herein were determined by fluorescence resonance energy transfer (FRET) using synthetic peptides labelled with both donor and acceptor fluorophores (Z-LYTE, Invitrogen Ltd., Paisley, UK). Recombinant, phosphorylated p38 MAPKγ (MAPK12:Invitrogen) was diluted in HEPES buffer, mixed with the test compound at the desired final concentrations and incubated for 2 hr at RT. The FRET peptide (2 μM) and ATP (100 μM) were added to the enzyme/compound mixture and incubated for 1 hr. Development reagent (protease) was added for 1 hr prior to detection in a fluorescence microplate reader (Varioskan® Flash, ThermoFisher Scientific). The site-specific protease cleaves non-phosphorylated peptide only and eliminates the FRET signal. Phosphorylation levels of each reaction were calculated using the ratio of coumarin emission (donor) over fluorescein emission (acceptor) for which high ratios indicate high phosphorylation and low ratios indicate low phosphorylation levels.
For the p38 MAPKα isoform (MAPK14: Invitrogen), enzyme activity was evaluated indirectly by determining the level of activation/phosphorylation of the down-stream molecule, MAPKAP-K2. The p38 MAPKα protein was mixed with the test compound for 2 hr at RT. […] Development reagent was then added and the mixture incubated for 1 hr before detection by fluorescence completed the assay protocol.

[7] = system: Poly I:C-induced ICAM-1 expression in BEAS2B cells; test: Poly I:C-induced ICAM-1 induction in BEAS2B cells; assay type: cell-based; details: Homo sapiens, BEAS-2B, poly I:C 1 μg/mL, 18 hr, read-out: PolyI:C/ICAM1 IC50 BEAS2B
Summary of the method: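 Human bronchial epithelial BEAS2B cells were pre-incubated with compound for 2 h, then transfected with poly I:C at 1 μg/mL. Surface ICAM-1 was measured 18 h later by cell-based ELISA (OD450–655), normalised to crystal-violet cell number (OD595). IC50 was taken from the concentration–response curve against vehicle.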

[8] = system: LPS-induced TNFα release in d-U937 cells; test: LPS-induced TNFα release in d-U937 cells; assay type: cell-based; details: Homo sapiens, dU937, 4 h; read-out: LPS/TNFα REC50 d-U937
Summary of the method: as §1

[9] = 0.2 mg/mL intra tracheal, 8 h pre-dose before LPS

| SMILES | % inhibition of Influx [1, 9] [%] | Neutrophil numbers in BAL [1, 9] | inhibitory effects versus neutrophil accumulation into the BALF (in words) ([1]; dosed 8 hr prior to LPS challenge) | IC50 [2] [nM] | IC50 [3] [nM] | IC50 [4] [nM] | MTT Assay (Viability) 4 h d-U937 [5] [%] | MTT Assay (Viability) 24 h d-U937 [5] [%] | IC50 [6] [nM] | IC50 [7] [nM] | EC50 [8] [nM] |
| --- | --- | --- | --- | --- | --- | --- | --- | --- | --- | --- | --- |
| CN(C)C(=O)Nc1cc(Oc2ccc(NC(=O)Nc3cc(C(C)(C)C)nn3-c3ccc(O)cc3)c3ccccc23)ccn1 [Example 34, 3-(4-(4-(3-(3-tert-butyl-1-(4-hydroxyphenyl)-1H-pyrazol-5-yl)ureido)naphthalen-1-yloxy)pyridin-2-yl)-1,1-dimethylurea] | 14 | 12.0 ± 1.7 × 10^5/mL | inhibitory effects | 89.3 | 1.5 | 1.9 | −25.8 | −43.4 | 2 | 4.4 | – |
| COCC(=O)Nc1cc(Oc2ccc(NC(=O)Nc3cc(C(C)(C)C)nn3-c3ccc(OC)c(Cl)c3)c3ccccc23)ccn1 [Example 54, N-(4-(4-(3-(3-tert-butyl-1-(3-chloro-4-methoxyphenyl)-1H-pyrazol-5-yl)ureido)naphthalen-1-yloxy)pyridin-2-yl)-2-methoxyacetamide] | – | – | – | 199 | 1.3 | 2.7 | 0.1 | −7.5 | 9.1 | 0.7 | 0.2 |
| COCC(=O)Nc1cc(Oc2ccc(NC(=O)Nc3cc(C(C)(C)C)nn3-c3ccc(C(=O)OC)cc3)c3ccccc23)ccn1 [Example 43, methyl 4-(3-tert-butyl-5-(3-(4-((2-(2-methoxyacetamido)pyridin-4-yl)oxy)naphthalen-1-yl)ureido)-1H-pyrazol-1-yl)benzoate] | – | – | – | 192 | 2 | 8.9 | −12.8 | 0.1 | 8.3 | 1.7 | 1.6 |
| CN1CCN(C(=O)Nc2cc(Oc3ccc(NC(=O)Nc4cc(C(C)(C)C)nn4-c4ccc(S(C)(=O)=O)cc4)c4ccccc34)ccn2)CC1 [Example 48, N-(4-(4-(3-(3-tert-butyl-1-(4-(methylsulfonyl)phenyl)-1H-pyrazol-5-yl)ureido)naphthalen-1-yloxy)pyridin-2-yl)-4-methylpiperazine-1-carboxamide] | – | – | – | 123 | 3.4 | 5 | −16.1 | −11.3 | 0.6 | 32.7 | 2.4 |
| CNC(=O)Nc1cc(Oc2ccc(NC(=O)Nc3cc(C(C)(C)C)nn3-c3ccc(OC)cc3)c3ccccc23)ccn1 [Example 38, 1-(4-(4-(3-(3-tert-butyl-1-(4-methoxyphenyl)-1H-pyrazol-5-yl)ureido)naphthalen-1-yloxy)pyridin-2-yl)-3-methylurea] | – | – | – | 122 | 1.7 | 21.8 | −1.7 | −38.2 | 15.7 | 9.8 | 18.4 |
| COCC(=O)Nc1cc(Oc2ccc(NC(=O)Nc3cc(C(C)(C)C)nn3-c3ccc(O)c(Cl)c3)c3ccccc23)ccn1 [Example 52, N-(4-(4-(3-(3-tert-butyl-1-(3-chloro-4-hydroxyphenyl)-1H-pyrazol-5-yl)ureido)naphthalen-1-yloxy)pyridin-2-yl)-2-methoxyacetamide] | – | – | – | 332 | 8.2 | > 1630 | 8.5 | −48.8 | 1.9 | 5.7 | 16.3 |
